Measurements reported in PubChem BioAssay (NCI).
Values joined by “and” are separate entries in the source; they are usually repeats but may differ in a detail not shown here. Identical values can stand only once.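 Compound exposure: 48 hours, 5 concentrations, 96-well plates. GI50 = concentration required for 50% inhibition of growth. TGI marks complete inhibition of growth.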 Where a SMILES comes first, the peptide text is derived from it. [ ]: non-standard residue; d: D form. The star is where a group is joined. ξ: configuration not given here. X37 = O=C(OCc1ccccc1)[C@@H]1CCC[C@H]1N*; Fmoc = O=C(OCC1c2ccccc2-c2ccccc21)*; ξW = NC(Cc1c[nH]c2ccccc12)C(=O)O; ξF = NC(Cc1ccccc1)C(=O)O; Boc = CC(C)(C)OC(=O)*; ξK = NCCCCC(N)C(=O)O; ξT = CC(O)C(N)C(=O)O; tBu = CC(C)(C)*

Experiments:
Experiment in all cases: NCI-60 cell line screen, 48 h
CAKI-1 renal = test system: CAKI-1 renal
UACC-257 melanoma = test system: UACC-257 melanoma
LXFL 529 NSCLC = test system: LXFL 529 NSCLC
EKVX NSCLC = test system: EKVX NSCLC
UACC-62 melanoma = test system: UACC-62 melanoma
DMS 273 small cell lung = test system: DMS 273 small cell lung
HL-60(TB) leukemia = test system: HL-60(TB) leukemia
U251 CNS = test system: U251 CNS
SF-268 CNS = test system: SF-268 CNS
SK-MEL-5 melanoma = test system: SK-MEL-5 melanoma
MALME-3M melanoma = test system: MALME-3M melanoma

| Structure (SMILES) | TGI (CAKI-1 renal) [µM] | TGI (UACC-257 melanoma) [µM] | TGI (LXFL 529 NSCLC) | TGI (EKVX NSCLC) [µM] | TGI (UACC-62 melanoma) [µM] | TGI (DMS 273 small cell lung) [µM] | TGI (HL-60(TB) leukemia) [µM] | TGI (U251 CNS) [µM] | TGI (SF-268 CNS) [µM] | TGI (SK-MEL-5 melanoma) [µM] | TGI (MALME-3M melanoma) [µM] | GI50 (UACC-257 melanoma) [µM] | GI50 (EKVX NSCLC) [µM] | GI50 (SF-268 CNS) [µM] | GI50 (UACC-62 melanoma) [µM] | GI50 (SK-MEL-5 melanoma) [µM] | GI50 (U251 CNS) [µM] |
| --- | --- | --- | --- | --- | --- | --- | --- | --- | --- | --- | --- | --- | --- | --- | --- | --- | --- |
| N#Cc1nn(-c2ccc(Cl)cc2)c(N)c2c(=N)n3nc(-c4ccccc4)cc3nc12 | > 100 | > 100 | > 54.4 µM | > 100 | > 35.7 | > 100 | > 100 | > 55.8 |  |  |  |  |  |  |  |  |  |
| O=c1c(-c2ccccc2)c[nH]c2cc([N+](=O)[O-])c(/C(Cl)=C/c3ccccc3)cc12 | 87.7 | 97.3 |  | 18.6 | 22.6 | > 38.7 | 31.6 | 24.4 | 16.7 | 25.8 |  |  |  |  |  |  |  |
| Nc1nc(Cl)cc(NCC2(CO)CC(CCCCc3ccccc3)C2)n1 (stereo not drawn) | > 100 | > 100 |  | > 100 | > 100 |  | 38.3 | > 100 | > 100 | > 100 | > 100 |  |  |  |  |  |  |
| COc1ccc2c(c1)CCC(CN1CCN(CCOC(c3ccc(F)cc3)c3ccc(F)cc3)CC1)=C2 | > 100 | 28.1 |  | 29.6 | 49 |  | 30.3 | 42.9 | > 100 | 18.5 | 27.9 |  |  |  |  |  |  |
| COc1cccc2c1C(=O)c1c(O)c3c(c(O)c1C2=O)C[C@@](O)(C(C)=O)C[C@@H]3OC1CC(N)C(O)C(C)O1 (stereo partly drawn) |  |  | 1.48 µM and 1.36 µM and > 5.01 µM |  |  |  |  |  |  |  |  | 0.0685 | 0.266 | 0.0183 | < 0.0166 | < 0.018 | < 0.0145 |
| CC(C)C[C@H](NC(=O)[C@@H](Cc1cccc2ccccc12)NC(=O)N1CCOCC1)B(O)O | 33.2 | 5.18 |  | 47.6 | 16 |  | > 24.6 | 17.7 | 15.1 | 9.24 | 2.72 |  |  |  |  |  |  |
| C[N+](C)(C)CCCCCc1c2nc(c(CCCCC[N+](C)(C)C)c3ccc([nH]3)c(CCCCC[N+](C)(C)C)c3ccc([nH]3)c(CCCCC[N+](C)(C)C)c3nc1C=C3)C=C2 | > 100 | > 100 |  | > 100 | > 100 |  | > 100 | > 100 | > 100 | > 100 | > 100 |  |  |  |  |  |  |
| Cc1[nH]n(C(=O)c2ccccc2O)c(=O)c1/C=C1\C(=O)C=Cc2ccccc21 | 6.64 | 26.6 | 42.4 µM | 19.4 | 2.36 |  |  | 40.7 | 31 | 4.26 | 16.5 |  |  |  |  |  |  |
| CC(C)(C)c1cc(C2COC(=O)COCCOCC(=O)OCCOCCO2)cc(C(C)(C)C)c1O (stereo not drawn) | 33.4 | > 100 |  | > 100 | > 100 |  | > 100 | > 100 | > 90.7 | > 100 | > 100 |  |  |  |  |  |  |
| CCOC(=O)Nc1ccc(S(=O)(=O)Nc2ccc(Br)cc2)cc1 | > 100 | > 100 |  | 89.5 | > 100 |  | > 100 | > 100 | > 100 | 88.7 | > 100 |  |  |  |  |  |  |
| CCOC(=O)Cc1csc(/N=C\c2c(O)c3ccccc3oc2=O)n1 | > 100 | 74.5 |  | > 100 | > 100 |  | 7.43 | > 100 | > 100 | 52.6 | 24.3 |  |  |  |  |  |  |
| CC(OC(C)(C)C)C(NC(=O)C(CCCCNC(=O)OC(C)(C)C)NC(=O)C(Cc1c[nH]c2ccccc12)NC(=O)C(Cc1ccccc1)NC(=O)OCC1c2ccccc2-c2ccccc21)C(=O)NC(Cc1ccccc1)C(=O)N[C@@H]1CCC[C@H]1C(=O)OCc1ccccc1 (stereo partly drawn) (Fmoc-[ξF][ξW][ξK](Boc)[ξT](tBu)[ξF]-X37) | > 100 | > 100 |  | > 100 | > 100 |  | > 100 | > 100 | > 100 | > 100 | > 100 |  |  |  |  |  |  |
| N#Cc1ccc(Nc2nc3nc[nH]c3c(=O)[nH]2)cc1 | > 100 | > 100 |  | > 100 | > 100 |  | > 100 | > 100 | > 100 | > 100 | > 100 |  |  |  |  |  |  |
| Fc1ccc(C(=NCc2ccccc2)N2CCOCC2)cc1 | > 100 | > 100 |  | > 100 | > 100 |  | > 100 | > 100 | > 100 | > 100 | > 100 |  |  |  |  |  |  |
| COc1ccc(OC)c2c1C[C@@H]1C(C#N)N3[C@H](Cc4c(OC)ccc(OC)c4[C@@H]3C)C(=O)N1[C@H]2C (stereo partly drawn) | 30.3 | 6.96 |  | 20.5 | 6.52 |  | 6.18 | 4.91 | 6.71 | 3.25 | 8.61 |  |  |  |  |  |  |
| COCOc1cc(OC)ccc1C=O | > 100 | > 100 |  | > 100 | > 100 |  | > 100 | > 100 | > 100 | > 100 | > 100 |  |  |  |  |  |  |
| COc1cc(O)c(C(=O)/C=C/c2ccc(O)cc2)cc1Oc1ccc(C(=O)/C=C/c2ccc(O)cc2)c(O)c1 | 9.69 | 21.7 |  | 5.68 | 4.52 |  | > 100 | 4.97 | 14.2 | 4.19 | 6.37 |  |  |  |  |  |  |
| OC1(c2ccc(Cl)cc2)c2ccccc2C2=Nc3ccccc3CN21 (stereo not drawn) | > 100 | > 100 |  | > 81.6 | > 100 |  | > 75.5 | > 100 | > 100 | > 100 | 92 |  |  |  |  |  |  |
| CCC1=C(C)C2=NC1=CC1=NC(=C(CC)/C1=C/O)C=C1N=C3C(=C1C)C(=O)C(C(=O)OC)C3=C1NC(=C2)C(C)C1CCC(=O)OC (stereo not drawn) | > 100 | > 100 |  | > 100 | > 100 |  | > 100 | > 100 | > 100 | > 100 | > 100 |  |  |  |  |  |  |
| COc1ccc(N=NN2CCCC2)cc1 | 35.1 | > 100 |  | 58.8 | > 100 |  | > 100 | > 100 | > 100 | > 100 | 39.3 |  |  |  |  |  |  |
| O=C(/C=C1\N=C(c2ccccc2)N(c2ccc3c(c2)Sc2cc(N4C(=O)/C(=C/C(=O)/C=C/c5ccccc5)N=C4c4ccccc4)ccc2N3)C1=O)/C=C/c1ccccc1 | > 100 | 83 |  | > 100 | 33.3 |  | > 100 | 57.8 | > 100 | 33.5 | 55.8 |  |  |  |  |  |  |
| C(=N\NC1=NCCCN1)/c1ccc(-c2cn3cc(/C=N/NC4=NCCCN4)ccc3n2)cc1 | > 100 | > 100 |  | > 100 | > 100 |  | > 58.1 | > 100 | > 100 | > 100 | 87.4 |  |  |  |  |  |  |
| CCOC(=O)c1c(OCC)[nH]c(=O)c(C(c2ccc(F)cc2)c2c(O)c(C(=O)OCC)c(OCC)[nH]c2=O)c1O | 42.4 | 37.3 |  | 33.2 | 30.3 |  | 54.3 | 36.3 | 33.6 | 25.9 | 29.5 |  |  |  |  |  |  |
| CC(=O)C1=CC=C/C1=N\Nc1ccccc1 | 11.8 | 33.5 |  | 23 | 28.7 |  | 5.5 | 9.36 | 23.8 | 29.8 | 28.4 |  |  |  |  |  |  |
| COC(=O)c1ccc(/C=C/C2=CC(=O)C=CC2=O)cc1 | 30.5 | 34.8 |  | 47.5 | 40.2 |  | 5.9 | 41.7 | 42.9 | > 52 | 36.9 |  |  |  |  |  |  |
| CCCCN(CCCC)CC(=O)c1ccc2cc(Cl)c3ccccc3c2c1 | 78.6 | 98.9 |  | > 100 | > 100 |  | > 100 | 68.8 | 42.1 | 34.6 | > 100 |  |  |  |  |  |  |
| COc1ccccc1NC(=S)N/N=C(/c1ccccc1)c1ccccn1 | 10.2 | 1.13 |  | 5.46 | 9.23 |  | 2.18 | 14.9 | 20.4 | 6.44 | 17.3 |  |  |  |  |  |  |
| Cc1nn(-c2ccccc2)c(C)c1/C=N/NC(=O)c1sc(=S)n(-c2ccc(Cl)cc2)c1N | 9.68 | > 100 |  | 8.91 | 74.1 |  | > 100 | > 100 | > 100 | 26 | > 100 |  |  |  |  |  |  |
| C=C1C(=O)OC2C(C)C3C=CC(=O)[C@@]3(C)C(OC(=O)/C(C)=C/C)C1[C@@H]2OC(C)=O (stereo partly drawn) | 1.61 | 1.66 | 1.16 µM | 1.27 | 0.81 | 1.81 |  | 2.36 | 3.22 | 2.78 | 0.539 |  |  |  |  |  |  |
| CC1OC(OC2C(CO)OC(O[C@H]3CC[C@@]4(C)C(=CC[C@H]5[C@@H]6C[C@@H]7O[C@](O)(CC[C@@H](C)COC8OC(CO)C(O)C(O)C8O)[C@@H](C)[C@@H]7[C@@]6(C)CC[C@@H]54)C3)C(OC3OC(C)C(O)C(O)C3O)C2O)C(O)C(O)C1O (stereo partly drawn) | 8.61 | 14.5 |  | 57.1 | 5.68 |  | 4.14 | 3.62 | 8.33 | 11.6 | 4.1 |  |  |  |  |  |  |
